According to paper PMC9970268 (Cancer Research Communications, 2022):

What was measured:
Cdc42 [1] = settings: metastatic breast cancer cells; cited from earlier work
[2] = test system: HER-2–positive (HER2+) tumor; settings: immunocompromised mice; cited from earlier work
[3] = mice; cited from earlier work
in vivo = settings: rats and dogs
GLP toxicity studies = settings: GLP data from a Contact Research Organization; rodents or dogs
GFP-HER2-BM cells [4] = experiment: Apoptosis assay (Caspase-Glo3/7); format: cell-based, human; settings: 500 nmol/L, 48 hours
Description: (§1) Apoptosis was measured using a Caspase-Glo3/7 Luminescence Assay Kit as per manufacturer's instructions (Promega, Corp.), as described previously ([23]). Briefly, Caspase-3/7 Glo reagent was added and incubated at room temperature for 60 minutes and caspase-3/7 activities were determined by detecting luminescence using Tecan Microplate Reader M100 (Tecan). Data were calculated as fold change from vehicle. (n = 3 biologic replicates: with three technical replicates each).

MDA-MB-231 cells = experiment: Apoptosis assay (Caspase-Glo3/7); format: cell-based, human; settings: 500 nmol/L, 48 hours
Description: as §1

MDA-MB-468 cells = experiment: Apoptosis assay (Caspase-Glo3/7); format: cell-based, human; settings: 500 nmol/L, 48 hours
Description: as §1

[5] = test system: MDA-MB-231, GFP-HER2-BM, and MDA-MB-468 cells; experiment: Apoptosis assay (Caspase-Glo3/7), cell line not specified; format: cell-based, human; settings: 500 nmol/L, 48 hours
Description: as §1

GFP-HER2-BM cells [6] = experiment: Transwell directed migration of attached and detached cells; format: cell-based, human; settings: treated 24 hr
Description: migration. Cells treated for 24hr and the attached and detached cell populations recovered and equal cell numbers were seeded on Transwells with […] and incubated for 7 hr.
Cells that migrated to the underside of the membrane were stained with propidium iodide and imaged at 20X. Representatives images are a result from two technical replicates and three […]
(1 picture or pasted object on this page, not shown here)

[7] = biological target: T1, Rac1(G15A) interaction with Vav2 (Homo sapiens, UniProt P63000, G15A); experiment: Rac1 (G15A) pulldown assay, Vav2; format: binding; settings: 250 nmol/L, 1 hour preincubation, MDA-MB-231 cell lysates
T1 construct: purchased Cell Biolabs; host or cells: GEF from MDA-MB-231 lysate
Description: MDA-MB-231 cells were lysed in 1% Triton X-100, 20 mmol/L HEPES, pH 7.4, 150 mmol/L NaCl, 5 mmol/L MgCl2, and protease inhibitors, and processed as described previously ([20]). Equal amounts of protein from cleared lysates were incubated for 1 hour at 4°C with glutathione-agarose beads conjugated to GST-Rac1 and GST-Cdc42(G15A) nucleotide-free mutant (Cell Biolabs) that were preincubated (for 1 hour) with vehicle or Rac/Cdc42 inhibitors, as indicated. The beads were washed, and pulldowns were immunoblotted for Vav2 or Ect2.

Rac1 [8] = biological target: T2, Rac1 (Homo sapiens, UniProt P63000); experiment: Nucleotide association assay, catalyzed by Vav2; format: biochemical; design: purchased Cytoskeleton, Inc; settings: 2 or 10 μmol/L, N-MAR-GTP
Description: (§2) The nucleotide loading on purified Rho GTPases was monitored using a fluorophore-based Rho GEF Exchange Assay Kit as per manufacturer's instructions (Cytoskeleton, Inc.). Drugs were diluted in exchange buffer and incubated with Rac1, Cdc42, or RhoA. […] After the initial five readings (T0), GEFs (Dbs or Vav2) or Ethylenediaminetetraacetic acid (EDTA) was added to stimulate exchange and readings were obtained every 30 seconds for at least 60 cycles.

Rac1 [9] = biological target: T2, Rac1; experiment: Nucleotide association assay, induced by EDTA; settings: read-out: inhibition of EDTA-induced loading of N-MAR-GTP on Rac1
Description: as §2
(§3) After initial five readings, the exchange factor Dbs was added to catalyze the loading of N-
(§4) B. 2µM Rac1 was incubated with 0 or 2 µM

RhoA = RhoA (Homo sapiens, UniProt P61586); experiment: Nucleotide association assay, catalyzed by Dbs; settings: 2 μmol/L, N-MAR-GTP
Description: as §2, §3, §4

Rac1 [10] = biological target: T2, Rac1; experiment: Rac activation pulldown assay in MDA-MB-231 cells; settings: MDA-MB-231, 24 hours, various concentrations
Description: (§5) Rac-GTP and Cdc42-GTP were detected using Rac Activity Assay or Cdc42 Activity Assay, as per manufacturer's instructions (Cell Signaling Technology). Briefly, total cell lysates were quantified and added equally to PAK-p21–binding domain conjugated Sepharose beads. After 1 hour of incubation, beads were washed, bound proteins extracted in sample buffer, and Rac1-GTP and Cdc42-GTP detected by Western blot analysis using Rac1, Rac1b, or Cdc42 antibody. (n = 3 biological replicates).
(§6) Total cell lysates or pulldowns were Western blotted using routine procedures. The primary antibodies used were anti-Rac (Cell Signaling Technology), anti-Cdc42 (Abcam), anti-PAK1+PAK2+PAK3 (Cell Signaling Technology), anti-pPAK1 (T423)/PAK2 (T402; Abcam), anti-PAK1 + PAK2 + PAK3 (phospho T423; Abcam), Rac1B, and β-actin (Millipore-Sigma).

Rac1B splice variant = Rac1B splice variant (Homo sapiens, UniProt P63000); experiment: Rac1B activation pulldown assay in MDA-MB-468 cells; settings: MDA-MB-468, 500 nmol/L, 24 hours
Description: as §5, §6

Cdc42 [11] = biological target: Cdc42 (Homo sapiens, UniProt P60953); experiment: Cdc42 activation pulldown assay in MDA-MB-231 cells; settings: MDA-MB-231, 24 hours
Description: as §5, §6

Rac1 [12] = biological target: T2, Rac1; experiment: Rac activation pulldown assay (PAK p21-binding domain); settings: GFP-HER2-BM cells, 250 nmol/L, 24 hours
Description: as §5, §6

Chain of RhoA (P61586 whole entry): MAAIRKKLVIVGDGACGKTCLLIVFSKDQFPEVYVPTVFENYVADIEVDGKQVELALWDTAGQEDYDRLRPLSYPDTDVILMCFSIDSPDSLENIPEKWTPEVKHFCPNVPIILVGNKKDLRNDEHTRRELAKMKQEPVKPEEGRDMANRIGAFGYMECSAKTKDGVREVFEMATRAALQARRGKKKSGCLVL
Chain of Cdc42 (Homo sapiens, UniProt P60953) (P60953 whole entry, the tested form may be a part): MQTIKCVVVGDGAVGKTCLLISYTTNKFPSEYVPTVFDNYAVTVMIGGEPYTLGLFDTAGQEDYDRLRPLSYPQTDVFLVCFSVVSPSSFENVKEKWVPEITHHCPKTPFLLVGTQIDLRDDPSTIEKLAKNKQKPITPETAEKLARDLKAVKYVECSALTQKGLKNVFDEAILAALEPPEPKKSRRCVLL

Question: With `CCn1c2ccccc2c2cc(-n3nncc3-c3ccccc3)ccc21` [MBQ-167] as the compound, how does the IC50 (Cdc42 [1]) read?
Answer: 0.078 µM

Question: What about the “inhibition of HER2+ tumor growth and metastasis to all organs” value [2] of the same compound?
Answer: approximately 90%

Question: And the half-life in plasma [3]?
Answer: approximately 2.5 hours

Question: What about the “half-life in tumor tissue” value [3] of the same compound?
Answer: approximately 8 hours

Question: And the NOAEL (in vivo)?
Answer: 1000 mg/kg

Question: What about the “dose with no apparent toxicity” value (GLP toxicity studies) of the same compound?
Answer: up to 1,000 mg/kg

Question: With `CCn1c2ccccc2c2cc(-n3nncc3-c3cccc(OC)c3)ccc21` [MBQ-168] as the compound, how does the Caspase-3/7 activity (GFP-HER2-BM cells [4]) read?
Answer: significantly increased Caspase-3/7 activity

Question: What about the Caspase-3/7 activity (MDA-MB-231 cells) of the same compound?
Answer: significantly increased Caspase-3/7 activity

Question: And the Caspase-3/7 activity (MDA-MB-468 cells)?
Answer: significantly increased Caspase-3/7 activity

Question: What about the “caspase-3/7 activity compared with the vehicle” value [5] of the same compound?
Answer: three to five times

Question: And the directed migration (GFP-HER2-BM cells [6])?
Answer: both cell types were inhibited

Question: What about the “Rac1(G15A) interaction with Vav2” value [7] of the same compound?
Answer: no effect

Question: And the “inhibition of GTP loading on Rac1 catalyzed by Vav2” value (Rac1 [8])?
Answer: ≥ 30%

Question: What about the inhibition at 2 µM (Rac1 [9]) of the same compound?
Answer: ~50%

Question: What about the “Dbs-catalyzed exchange of RhoA” value (RhoA) of the same compound?
Answer: did not affect

Question: And the Rac.GTP incorporation (Rac1 [10])?
Answer: inhibits Rac.GTP incorporation in a dose-dependent manner

Question: And the “activation and expression of Rac1B” value (Rac1B splice variant)?
Answer: inhibited activation of Rac1B, as well as expression

Question: And the Cdc42 activity (Cdc42 [11])?
Answer: reduced in a dose-dependent manner

Question: And the Rac1-GTP (Rac1 [12]; attached and detached cell population)?
Answer: complete depletion

Question: What about the “reduction of Rac1 activation (Rac1.GTP)” value (Rac1 [12]; attached cell population) of the same compound?
Answer: approximately 100%

Question: And the “decrease in Rac1 expression” value (Rac1 [12]; detached cell population)?
Answer: approximately 100%
